What was measured:
[1] = Solubility in hexane at room temperature (AF-388 series); type: physicochemical; settings: for solubility in hexane, % wt/vol. / solubility in hexane, % wt/wt: 24° C.; for amount that remained completely dissolved in hexane for months: ambient conditions
[2] = Solubility in toluene at room temperature; type: physicochemical
Source text: In addition, these chromophores are found to be even more soluble in aromatic hydrocarbon solvents as indicated by the higher solubilities of AF388-118 (≧29 wt %) and AF388-312 (≧67 wt %) in toluene.

solubility in hexane, % wt/vol. [1] | solubility in hexane, % wt/wt [1] | amount that remained completely dissolved in hexane for months [1] | concentration of toluene solution that remained homogenous [2] | solubility in toluene [2] | concentration of toluene solution that solidified at room temperature after 72 hours ([2]; 72 hours) | Compound
36.3 % wt/vol. | 51.3 % wt/wt | ≥ 51 wt % |  |  |  | CC(C)CCCC(C)CCCC(C)CCCC(C)CCC1(CCC(C)CCCC(C)CCCC(C)CCCC(C)C)c2cc(-c3nc4cc5sc(-c6ccc7c(c6)C(CCC(C)CCCC(C)CCCC(C)CCCC(C)C)(CCC(C)CCCC(C)CCCC(C)CCCC(C)C)c6cc(N(c8ccccc8)c8ccccc8)ccc6-7)nc5cc4s3)ccc2-c2ccc(N(c3ccccc3)c3ccccc3)cc21 (stereo not shown) [AF-388-416, 2,6-Bis[7-(diphenylimino)-9,9-bis(3,7,11,15-tetramethylhexadecyl)fluoren-2-yl]-benzobisthiazole]
0.41 % wt/vol. | 0.61 % wt/wt |  | 0.24 M | ≥ 29 wt % | 0.34 M | CC(C)CCCC(C)CCC1(CCC(C)CCCC(C)C)c2cc(-c3nc4cc5sc(-c6ccc7c(c6)C(CCC(C)CCCC(C)C)(CCC(C)CCCC(C)C)c6cc(N(c8ccccc8)c8ccccc8)ccc6-7)nc5cc4s3)ccc2-c2ccc(N(c3ccccc3)c3ccccc3)cc21 (stereo not shown) [AF-388-118]
20.2 % wt/vol. | 30.4 % wt/wt | ≥ 30 wt % | 0.34 M | ≥ 67 wt % |  | CC(C)CCCC(C)CCCC(C)CCC1(CCC(C)CCCC(C)CCCC(C)C)c2cc(-c3nc4cc5sc(-c6ccc7c(c6)C(CCC(C)CCCC(C)CCCC(C)C)(CCC(C)CCCC(C)CCCC(C)C)c6cc(N(c8ccccc8)c8ccccc8)ccc6-7)nc5cc4s3)ccc2-c2ccc(N(c3ccccc3)c3ccccc3)cc21 (stereo not shown) [AF-388-312, 2,6-Bis[7-(diphenylimino)-9,9-bis(3,7,1′-trimethyldodecylfluoren-2-yl)]-benzobisthiazole]

Reference: US8471035B1, “Two-photon absorbing arylamine-endcapped and dialkylfluorene-bridged benzobisthiazole compounds with high oleophilicity” (The United States of America as represented by the …, priority 2011, dated 2013)
